These results are taken from patent US20260167638A1, “PHARMACEUTICAL COMPOUND, SALTS THEREOF, FORMULATIONS THEREOF, AND METHODS OF MAKING AND USING SAME” (Genentech, Inc., priority 2018, published 2026).

Data set [1] is described as follows: Solubility in pure water at 25° C. with PXRD of solid residues. It counts as physicochemical. The settings on record: for pH (24 hrs) / pH (1 hr): pH of solubility sample; for pH (24 hrs) / pH (1 hr) / S 24 hrs / S 1 hr: pure water, 25° C.; for pH (1 hr) / S 1 hr: one hour; for S 24 hrs: 24 hours equilibration. How it is done:
Using a similar strategy as described above, these salts were prepared by evaporation from a solution of free base and acid in a solvent (e.g., methanol-dichloromethane 1:1, ethyl acetate-dichloromethane 1:2, isopropanol, and the like). If necessary, an amorphous salt produced in this way was crystallized by stirring the amorphous material in an appropriate solvent (e.g., ethyl acetate, acetonitrile, and the like).

The nature of data set [2]: Dissolution and precipitation in pH 6.5 phosphate buffer at 37° C. containing HPMC. In kind it is physicochemical. The settings on record: aqueous buffer. From the text:
The inclusion of HPMC in the tablet of Example 16 was to maintain the supersaturation of Compound I API after its mono-tosylate salt dissolves. […]

Data set [3] is described as follows: Experimental determination of the pKa. In kind it is physicochemical.
A short description of data set [4]: Example 21 crossover pharmacokinetics of mono-tosylate and di-tosylate tablets in fasted dogs. The settings on record: for Individual plasma concentration of Compound I: individual dogs 1-5; for Individual plasma concentration of Compound I / Mean plasma concentration of Compound I: phase 2, di-tosylate tablet 200 mg PO; for AUC0-last / AUC0-rt / Cmax / tmax: Example 21, fasted dogs, 200 mg tablet PO. In kind it is in vivo, beagle dogs. The procedure:
Pharmacokinetics parameters of formulations of Compound I and its salts in dogs were determined by orally administering a test formulation tablet at 200 mg of active (Compound I or salt) per dog.
Blood samples were taken at various times after administration, plasma prepared, and submitted to analysis for parent drug using a qualified LC-MS-MS assay. Pharmacokinetics parameters derived from the plasma analytical data were determined using non-compartmental analysis.
Pharmacokinetics of Compound I were determined in pentagastrin-pretreated male beagle dogs following a single oral (PO) administration at 200 mg/tablet per dog in a 2-phase crossover designed study, with a washout period of at least 7 days in between each phase. Five male, non-naive, purebred beagle dogs were used in each phase of the 2-phase crossover study. All dogs were pretreated with pentagastrin (6 μg/kg intramuscular administrations) approximately 30 minutes before test article administration.
Two tablet formulations (mono-tosylate and di-tosylate, as described above) of test article were assessed. Animals were fasted overnight prior to PO dosing through approximately 4 hours post-dose. The tablet was administered orally, followed by approximately 10 mL of reverse osmosis water. Phase 1 animals were given tablets containing Compound I mono-tosylate, and phase 2 animals were given tablets containing Compound I di-tosylate salt. Blood samples were collected pre-dose and at 0.25, 0.5. 1. 2, 4, 8, 24, 36, and 48 hours after the oral dose. Plasma was harvested, and the concentration of Compound I in each plasma sample was determined by an LC/MS/MS assay. The assay lower limit of quantitation was 20 ng/mL for Compound I. Mean Compound I concentrations measured in plasma were used to construct semi-logarithmic plasma concentration-time curves (FIG. 1). Pharmacokinetic analysis was performed using non-compartmental methods.

A short description of data set [5]: Water sorption / dynamic vapor sorption (DVS) hygroscopicity. In kind it is physicochemical. The procedure:
The pKa value of Compound I free base was calculated (ACD Labs pKa DB, v10.0) as 2.12±0.33. Therefore, Compound I free base was considered as a very weak base that could be protonated by strong acids. […] A sample of Compound I free base was analyzed by powder x-ray diffraction and found to be crystalline without any readily detectable amorphous content. […] (onset temperature).
The maximum water uptake for the amorphous salt was about 40% whereas the maximum water uptake for the crystalline di-hydrochloride salt was higher, with about 54% uptake.
The hygroscopic nature of the besylate salt was examined by dynamic vapor sorption analysis (DVS). […] Below 80% relative humidity not much water was adsorbed.

The mark [6] stands for this setting: Table 5: free base and crystalline salt forms.
Setting [7] is: Table 4: free base and amorphous salt forms.

Each structure is given as a SMILES string. Values after ≈ are worked out from the molar mass of the structure shown. Values joined by “and” are separate entries in the source; they are usually repeats but may differ in a detail not shown here. Identical values can stand only once.

For orientation: solubility means the concentration that dissolves in the medium under given conditions. The pKa is the negative logarithm of the acid dissociation constant. A high value points to a weaker acid or stronger base. Broadly, the Cmax is the highest concentration seen after dosing.

On to `Cn1cc(-c2cn(-c3ccc(OC(F)(F)F)cc3)c(=O)c3ncn(C)c23)cn1` [Compound I, 1-methyl-7-(1-methyl-1H-pyrazol-4-yl)-5-(4-(trifluoromethoxy)phenyl)-1,5-dihydro-4H-imidazo[4,5-c]pyridin-4-one], for which the “Solubility (24 hours)” value in data set [1] (setting [6]) stood at 57 µg/mL. Also, the solubility at 24 h in data set [1] (water, 25 °C, water, thermodynamic from solid, Table 4: free base and amorphous salt forms) turned out to be 57 µg/mL. The molecule also returned a solubility in data set [2] of roughly 80 µg/mL (≈ 205 µM). In addition, the pKa in data set [3] was found to be 2.5.
With `Cc1ccc(S(=O)(=O)O)cc1.Cc1ccc(S(=O)(=O)O)cc1.Cn1cc(-c2cn(-c3ccc(OC(F)(F)F)cc3)c(=O)c3ncn(C)c23)cn1` [Di-tosylate], the “Individual plasma concentration of Compound I” value was 1020 ng/mL and 146 ng/mL and 309 ng/mL and 29.1 ng/mL and 670 ng/mL in data set [4] (0.25 hours, fasted dogs, listed as Compound I di-tosylate salt); 7120 ng/mL and 1820 ng/mL and 3500 ng/mL and 636 ng/mL and 2610 ng/mL in data set [4] (0.5 hours, fasted dogs, listed as Compound I di-tosylate salt); 8040 ng/mL and 6510 ng/mL and 9340 ng/mL and 1600 ng/mL and 6140 ng/mL in data set [4] (1 hour, fasted dogs, listed as Compound I di-tosylate salt); 8810 ng/mL and 11200 ng/mL and 13400 ng/mL and 1580 ng/mL and 8110 ng/mL in data set [4] (2 hours, fasted dogs, listed as Compound I di-tosylate salt); 6820 ng/mL and 10500 ng/mL and 13100 ng/mL and 1040 ng/mL and 6440 ng/mL in data set [4] (4 hours, fasted dogs, listed as Compound I di-tosylate salt); 2700 ng/mL and 5620 ng/mL and 5860 ng/mL and 368 ng/mL and 2040 ng/mL in data set [4] (8 hours, fasted dogs, listed as Compound I di-tosylate salt). Further, the “Individual plasma concentration of Compound I” value in data set [4] (24 hours, fasted dogs, listed as Compound I di-tosylate salt) was 231 ng/mL and 1800 ng/mL and 530 ng/mL and 35.0 ng/mL and 30.0 ng/mL; in data set [4] (36 hours, fasted dogs, listed as Compound I di-tosylate salt) it was “BLQ (4×) and 273 ng/mL”; in data set [4] (48 hours, fasted dogs, listed as Compound I di-tosylate salt), “BLQ (4×) and 21.5 ng/mL”; in data set [4] (Pre-dose, fasted pentagastrin-pretreated dogs), “BLQ”. Moreover, the “Mean plasma concentration of Compound I” value turned out to be 536 ng/mL in data set [4] (0.25 hours, mean, fasted dogs); 3760 ng/mL in data set [4] (0.5 hours, mean, fasted dogs); 7510 ng/mL in data set [4] (1 hour, mean, fasted dogs); 10400 ng/mL in data set [4] (2 hours, mean, fasted dogs); 9220 ng/mL in data set [4] (4 hours, mean, fasted dogs); 4060 ng/mL in data set [4] (8 hours, mean, fasted dogs). Moreover, the “Mean plasma concentration of Compound I” value in data set [4] (24 hours, mean, fasted dogs) is 648 ng/mL; in data set [4] (36 hours, mean, fasted dogs), 273 ng/mL; in data set [4] (48 hours, mean, fasted dogs) it was 21.5 ng/mL; in data set [4] (Pre-dose, mean, fasted dogs), “BLQ”. Moreover, the AUC0-last is 62700 ng·h/mL and 129000 ng·h/mL and 113000 ng·h/mL and 9680 ng·h/mL and 47200 ng·h/mL in data set [4] (individual subjects); 88000 ng·h/mL in data set [4] (mean). Besides, the AUC0-rt is 64100 ng·h/mL and 129000 ng·h/mL and 116000 ng·h/mL and 9890 ng·h/mL and 47300 ng·h/mL in data set [4] (individual subjects); 89100 ng·h/mL in data set [4] (mean). Besides, the Cmax in data set [4] (individual subjects) is 8810 ng/mL and 11200 ng/mL and 13400 ng/mL and 1600 ng/mL and 8110 ng/mL; in data set [4] (mean), 10400 ng/mL. The tmax was 2.00 h and 1.00 h in data set [4] (individual subjects); 2.00 h in data set [4] (mean).
Take `Br.Br.Cn1cc(-c2cn(-c3ccc(OC(F)(F)F)cc3)c(=O)c3ncn(C)c23)cn1` [di-HBr crystalline]: the “Solubility (24 hours)” value in data set [1] (setting [6]) stood at 480 µg/mL. In addition, in data set [1], the “pH (24 hrs)” value was determined as 1.6, the “pH (1 hr)” value turned out to be 1.6, the “S 24 hrs” value was 0.48 mg/mL and the “S 1 hr” value was 0.54 mg/mL.
Consider `Cl.Cl.Cn1cc(-c2cn(-c3ccc(OC(F)(F)F)cc3)c(=O)c3ncn(C)c23)cn1` [di-HCl crystalline], for which the “Solubility (24 hours)” value in data set [1] (setting [6]) was found to be 760 µg/mL. Besides, in data set [1], the “pH (24 hrs)” value is recorded as 1.5, the “pH (1 hr)” value stood at 1.3, the “S 24 hrs” value is 0.76 mg/mL and the “S 1 hr” value turned out to be 1.14 mg/mL.
As for `Cn1cc(-c2cn(-c3ccc(OC(F)(F)F)cc3)c(=O)c3ncn(C)c23)cn1.Cn1cc(-c2cn(-c3ccc(OC(F)(F)F)cc3)c(=O)c3ncn(C)c23)cn1.O=S(=O)(O)CCS(=O)(=O)O` [hemi-edisylate], the “Solubility (24 hours)” value in data set [1] (setting [6]) turned out to be 990 µg/mL. In data set [1], the “pH (24 hrs)” value amounted to 1.48, the “pH (1 hr)” value turned out to be 1.42, the “S 24 hrs” value was determined as 0.99 mg/mL and the “S 1 hr” value is 1.09 mg/mL. For the same molecule, the “reversibility of water adsorption within the timeframe of observation” value in data set [5] was “not reversible”.
Regarding `Cn1cc(-c2cn(-c3ccc(OC(F)(F)F)cc3)c(=O)c3ncn(C)c23)cn1.Cn1cc(-c2cn(-c3ccc(OC(F)(F)F)cc3)c(=O)c3ncn(C)c23)cn1.O=S(=O)(O)c1cccc2c(S(=O)(=O)O)cccc12` [hemi-napadisylate], the “Solubility (24 hours)” value in data set [1] (setting [6]) amounted to 1830 µg/mL. In data set [1], the “pH (24 hrs)” value is given as 1.53, the “pH (1 hr)” value turned out to be 1.53, the “S 24 hrs” value is 1.83 mg/mL and the “S 1 hr” value is 2.76 mg/mL. Besides, the “reversibility of water adsorption within the timeframe of observation” value in data set [5] is “not reversible”.
With `Br.Cn1cc(-c2cn(-c3ccc(OC(F)(F)F)cc3)c(=O)c3ncn(C)c23)cn1` [mono-HBr amorphous], the “Solubility (24 hours)” value in data set [1] (setting [7]) worked out at 620 µg/mL. Further, in data set [1], the “pH (24 hrs)” value came out at 1.6 and the “S 24 hrs” value was determined as 0.62 mg/mL.
On to `Br.Cn1cc(-c2cn(-c3ccc(OC(F)(F)F)cc3)c(=O)c3ncn(C)c23)cn1` [mono-HBr crystalline], for which, in data set [1], the “pH (24 hrs)” value turned out to be 1.9 and the “S 24 hrs” value stood at 0.31 mg/mL.
For `Cl.Cn1cc(-c2cn(-c3ccc(OC(F)(F)F)cc3)c(=O)c3ncn(C)c23)cn1` [mono-HCl amorphous], in data set [1] (setting [7]), the “Solubility (24 hours)” value amounted to 700 µg/mL. Further, in data set [1], the “pH (24 hrs)” value worked out at 1.6 and the “S 24 hrs” value stood at 0.70 mg/mL.
`Cl.Cn1cc(-c2cn(-c3ccc(OC(F)(F)F)cc3)c(=O)c3ncn(C)c23)cn1` [mono-HCl crystalline]: in data set [1], the “pH (24 hrs)” value stood at 1.6 and the “S 24 hrs” value stood at 0.42 mg/mL.
Consider `Cn1cc(-c2cn(-c3ccc(OC(F)(F)F)cc3)c(=O)c3ncn(C)c23)cn1.O=[N+]([O-])O` [mono-nitrate amorphous], for which, in data set [1], the “pH (24 hrs)” value is reported as 1.9 and the “S 24 hrs” value turned out to be 0.33 mg/mL.
For the molecule `Cn1cc(-c2cn(-c3ccc(OC(F)(F)F)cc3)c(=O)c3ncn(C)c23)cn1.O=[N+]([O-])O` [mono-nitrate crystalline], in data set [1], the “pH (24 hrs)” value is on record as 1.8, the “pH (1 hr)” value was 1.8, the “S 24 hrs” value is 0.38 mg/mL and the “S 1 hr” value is 0.42 mg/mL.
With `Cn1cc(-c2cn(-c3ccc(OC(F)(F)F)cc3)c(=O)c3ncn(C)c23)cn1.O=S(=O)(O)O` [mono-sulfate amorphous], the “Solubility (24 hours)” value in data set [1] (setting [7]) worked out at 840 µg/mL. For the same molecule, in data set [1], the “pH (24 hrs)” value was 1.4, the “pH (1 hr)” value stood at 1.2 and the “S 24 hrs” value is 0.84 mg/mL.
